Measured values taken from patent US20170001990A1 (Genentech, Inc., priority 2014, published 2017).

Target: Human recombinant carboxy-terminal his-tagged LDHA (amino acids 2-332) (Homo sapiens, UniProt P00338)
Experiment: LDHA enzyme inhibition assay (NADH fluorescence)
Details: LDHA IC50 (μM), 1 nM LDHA, NADH and pyruvate, stereochemistry of tested sample given
Description: Test compounds were diluted in 100% DMSO with 1:3 serial dilutions. […] For the enzyme reaction, serially diluted compounds were added to a mixture of enzyme and NADH. […] Following the baseline read, pyruvate was added to the assay plates and the plates were read with excitation 340 nm and emission 480 nm for 10 minutes every 2.5 seconds. A suitable linear timeframe was selected (150-400 s) to calculate the slope of each concentration tested. The raw data were fitted to 4-parameter dose-response curves using the following equation:
fit=(A+((B−A)/(1+((C/x)̂D))))
inv=(C/((((B−A)/(y−A))−)̂(1/D)))
res=(y−fit) • where A=minimum y, B=maximum y, C=50% y max, and D=slope factor.
The curve bottom was set to the background rate (initial 5 second recording prior to addition of pyruvate) and curve top was set to no inhibitor (DMSO only) control wells rate.
The compounds of the present invention were tested for their capacity to inhibit LDHA activity and activation as described in the enzyme inhibition assay described above.

| IC50 [µM] | SMILES |
| --- | --- |
| 0.101 | COc1cc(F)cc(Cc2cccc(C3(c4ccsc4)CC(=O)C(Sc4ccccc4Cl)C(=O)N3)n2)c1 (single isomer, unassigned) [Example 171, 3-(2-chlorophenyl)sulfanyl-6-[6-[(3-fluoro-5-methoxy-phenyl)methyl]-2-pyridyl]-6-(3-thienyl) piperidine-2,4-dione] |
| 0.017 | O=C1CC(c2ccc(N3CCCCC3)cc2)(c2ccsc2)NC(=O)C1Sc1cc(O)ccc1Cl (stereo not drawn) [Example 43] |
| 0.004 | O=C1CC(c2ccsc2)(c2cccc(OCC3CC(F)(F)C3)n2)NC(=O)C1Sc1ccccc1Cl (single isomer, unassigned) [Example 165] |
| 0.019 | O=C1CC(c2ccsc2)(c2cccc(OCCC3CCCCC3)n2)NC(=O)C1Sc1ccccc1Cl (single isomer, unassigned) [Example 161, 3-(2-chlorophenyl)sulfanyl-6-[6-(2-cyclohexylethoxy)-2-pyridyl]-6-(3-thienyl) piperidine-2,4-dione] |
| 0.01 | O=C1CC(c2ccsc2)(c2cccc(Oc3cc(F)cc(CO)c3)n2)NC(=O)C1Sc1ccccc1Cl (single isomer, unassigned) [Example 176, 3-(2-chlorophenyl)sulfanyl-6-[6-[3-fluoro-5-(hydroxymethyl)phenoxy]-2-pyridyl]-6-(3-thienyl) piperidine-2,4-dione] |
| 0.126 | COc1cccc(Oc2cccc(C3(c4ccsc4)CC(=O)C(Sc4ccccc4Cl)C(=O)N3)n2)c1 (stereo not drawn) [Example 64, 3-(2-chlorophenyl)sulfanyl-6-[6-(3-methoxyphenoxy)-2-pyridyl]-6-(3-thienyl) piperidine-2,4-dione] |
| 0.031 | O=C1CC(c2ccsc2)(c2cccc(Oc3cccc(C(F)F)c3)n2)NC(=O)C1Sc1ccccc1Cl (single isomer, unassigned) [Example 115, 3-(2-chlorophenyl)sulfanyl-6-[6-[3-(difluoromethyl)phenoxy]-2-pyridyl]-6-(3-thienyl)piperidine-2,4-dione] |
| 0.053 | COCCOc1ccc(C2(c3ccsc3)CC(=O)C(Sc3ccccc3Cl)C(=O)N2)cc1 (stereo not drawn) [Example 30, 3-(2-chlorophenyl)sulfanyl-6-[4-(2-methoxyethoxy)phenyl]-6-(3-thienyl)piperidine-2,4-dione] |
| 0.039 | O=C1CC(c2ccsc2)(c2cccc(N[C@H](CO)c3ccc(F)c(Cl)c3)n2)NC(=O)C1Sc1ccccc1Cl (stereo partly drawn) [Example 296, 6-(6-(((S)-1-(3-chloro-4-fluorophenyl)-2-hydroxy-ethyl)amino)pyridin-2-yl)-3-((2-chlorophenyl)thio)-6-(thiophen-3-yl) piperidine-2,4-dione] |
| 0.018 | O=C1CC(c2ccsc2)(c2cccc(OCC(F)F)n2)NC(=O)C1Sc1ccccc1Cl (single isomer, unassigned) [Example 245, 3-(2-chlorophenyl)sulfanyl-6-[6-(2,2-difluoroethoxy)-2-pyridyl]-6-(3-thienyl) piperidine-2,4-dione] |
| 0.037 | COCCCOc1cccc(C2(c3ccsc3)CC(=O)C(Sc3ccccc3Cl)C(=O)N2)n1 (single isomer, unassigned) [Example 201, 3-(2-chlorophenyl)sulfanyl-6-[6-(3-methoxypropoxy)-2-pyridyl]-6-(3-thienyl) piperidine-2,4-dione] |
| 0.036 | O=C1CC(c2ccsc2)(c2cccc(Oc3cc(F)cc(F)c3)n2)NC(=O)C1Sc1ccccc1Cl (stereo not drawn) [Example 62, 3-(2-chlorophenyl)sulfanyl-6-[6-(3,5-difluoro-phenoxy)-2-pyridyl]-6-(3-thienyl)piperidine-2,4-dione] |
| 0.015 | O=C1CC(c2ccsc2)(c2cccc(Cc3cc(F)cc(F)c3)n2)NC(=O)C1Sc1ccccc1Cl (stereo not drawn) [Example 151, 3-(2-chlorophenyl)sulfanyl-6-[6-[(3,5-difluorophenyl)methyl]-2-pyridyl]-6-(3-thienyl)piperidine-2,4-dione] |
| 0.339 | Cc1cnc(N)n1-c1cccc(C2(c3ccsc3)CC(=O)C(Sc3ccccc3Cl)C(=O)N2)n1 (stereo not drawn) [Example 278, 6-(6-(2-amino-5-methyl-1H-imidazol-1-yl)pyridin-2-yl)-3-((2-chloro-phenyl)thio)-6-(thiophen-3-yl)piperidine-2,4-dione] |
| 0.068 | O=C1CC(c2ccsc2)(c2cccc(NCCC3CC3)n2)NC(=O)C1Sc1ccccc1Cl (stereo not drawn) [Example 174, 3-(2-chlorophenyl)sulfanyl-6-[6-(2-cyclopropyl-ethylamino)-2-pyridyl]-6-(3-thienyl)piperidine-2,4-dione] |
| 0.02 | COc1ccccc1Oc1cccc(C2(c3ccsc3)CC(=O)C(Sc3ccccc3Cl)C(=O)N2)n1 (stereo not drawn) [Example 61, 3-(2-chlorophenyl)sulfanyl-6-[6-(2-methoxyphenoxy)-2-pyridyl]-6-(3-thienyl) piperidine-2,4-dione] |

| IC50 [µM] | SMILES |
| --- | --- |
| 0.033 | O=C1CC(c2ccsc2)(c2cccc(Oc3ccc(F)c(Br)c3)n2)NC(=O)C1Sc1ccccc1Cl (single isomer, unassigned) [Example 143, 6-[6-(3-bromo-4-fluoro-phenoxy)-2-pyridyl]-3-(2-chlorophenyl)sulfanyl-6-(3-thienyl)piperidine-2,4-dione] |
| 0.008 | O=C1CC(c2ccsc2)(c2cccc(OCCC3CCCC3)n2)NC(=O)C1Sc1ccccc1Cl (single isomer, unassigned) [Example 134, 3-(2-chlorophenyl)sulfanyl-6-[6-(2-cyclopentyl-ethoxy)-2-pyridyl]-6-(3-thienyl)piperidine-2,4-dione] |
| 0.041 | O=C1C[C@](c2ccsc2)(c2cccc(Oc3ccc(C(F)(F)F)cc3)n2)NC(=O)C1Sc1ccccc1Cl (stereo partly drawn) [Example 330, (6S)-3-(2-chlorophenyl) sulfanyl-6-(3-thienyl)-6-[6-[4-(trifluoromethyl)phenoxy]-2-pyridyl] piperidine-2,4-dione] |
| 0.025 | O=C1CC(c2ccsc2)(c2cccc(OCC3CCOCC3)n2)NC(=O)C1Sc1ccccc1Cl (single isomer, unassigned) [Example 187, 3-(2-chlorophenyl)sulfanyl-6-[6-(tetrahydropyran-4-ylmethoxy)-2-pyridyl]-6-(3-thienyl)piperidine-2,4-dione] |
| 0.014 | O=C1CC(c2ccsc2)(c2cccc(OCC3CC(F)(F)C3)n2)NC(=O)C1Sc1ccccc1Cl (single isomer, unassigned) [Example 215, 3-(2-chlorophenyl)sulfanyl-6-[6-[(3,3-difluorocyclo-butyl)methoxy]-2-pyridyl]-6-(3-thienyl)piperidine-2,4-dione] |
| 0.021 | O=C1CC(c2ccsc2)(c2cccc(OCc3ccncc3)n2)NC(=O)C1Sc1ccccc1Cl (stereo not drawn) [Example 186, 3-(2-chlorophenyl)sulfanyl-6-[6-(4-pyridylmethoxy)-2-pyridyl]-6-(3-thienyl) piperidine-2,4-dione] |
| 0.175 | Cc1cnc(Nc2cccc(C3(c4ccsc4)CC(=O)C(Sc4ccccc4Cl)C(=O)N3)n2)[nH]1 (stereo not drawn) [Example 276, 3-((2-chlorophenyl)thio)-6-(6-((5-methyl-1H-imidazol-2-yl)amino)pyridin-2-yl)-6-(thiophen-3-yl)piperidine-2,4-dione] |
| 0.009 | CC(Oc1cccc(C2(c3ccsc3)CC(=O)C(Sc3ccccc3Cl)C(=O)N2)n1)C(F)(F)F (stereo not drawn) [Example 231, 3-(2-chlorophenyl)sulfanyl-6-(3-thienyl)-6-[6-(2,2,2-trifluoro-1-methyl-ethoxy)-2-pyridyl]piperidine-2,4-dione] |
| 0.201 | O=C1CC(c2ccsc2)(c2cccc(Oc3cncnc3)n2)NC(=O)C1Sc1ccccc1Cl (stereo not drawn) [Example 54, 3-(2-chlorophenyl)sulfanyl-6-(6-pyrimidin-5-yloxy-2-pyridyl)-6-(3-thienyl)piperidine-2,4-dione] |
| 0.293 | CC(C)CCOc1cccc(C2(c3ccsc3)CC(=O)C(Sc3ccccc3Cl)C(=O)N2)n1 (single isomer, unassigned) [Example 119, 3-(2-chlorophenyl)sulfanyl-6-(6-isopentyloxy-2-pyridyl)-6-(3-thienyl) piperidine-2,4-dione] |
| 0.32 | O=C1CC(c2ccsc2)(c2cccc(OCC3CCCO3)n2)NC(=O)C1Sc1ccccc1Cl (single isomer, unassigned) [Example 221, 3-(2-chlorophenyl)sulfanyl-6-[6-(tetrahydrofuran-2-ylmethoxy)-2-pyridyl]-6-(3-thienyl)piperidine-2,4-dione] |
| 0.104 | CN(c1ccc(F)cc1)c1cccc(C2(c3ccsc3)CC(=O)C(Sc3ccccc3Cl)C(=O)N2)n1 (single isomer, unassigned) [Example 262, 3-((2-chlorophenyl)thio)-6-(6-((4-fluorophenyl) (methyl)amino)pyridin-2-yl)-6-(thiophen-3-yl)piperidine-2,4-dione] |
| 0.056 | O=C1CC(c2ccsc2)(c2cccc(Oc3cccnc3)n2)NC(=O)C1Sc1ccccc1Cl (stereo not drawn) [Example 71, 3-((2-chlorophenyl)thio)-6-(6-(pyridin-3-yloxy)pyridin-2-yl)-6-(thiophen-3-yl)piperidine-2,4-dione] |
| 0.002 | CC(Oc1cccc(C2(c3ccsc3)CC(=O)C(Sc3ccccc3Cl)C(=O)N2)n1)C1CC1 (single isomer, unassigned) [Example 184, 3-(2-chlorophenyl)sulfanyl-6-[6-(1-cyclopropylethoxy)-2-pyridyl]-6-(3-thienyl) piperidine-2,4-dione] |
| 0.225 | O=C1CC(c2ccsc2)(c2cccc(Nc3ccc(F)nc3)n2)NC(=O)C1Sc1ccccc1Cl [Example 317, (6R)-3-(2-chlorophenyl) sulfanyl-6-[6-[(6-fluoro-3-pyridyl)amino]-2-pyridyl]-6-(3-thienyl) piperidine-2,4-dione] |

| SMILES | IC50 [µM] |
| --- | --- |
| O=C1CC(c2ccsc2)(c2cccc(OC3CCC3)n2)NC(=O)C1Sc1ccccc1Cl (stereo not drawn) [Example 222, 3-(2-chlorophenyl)sulfanyl-6-[6-(cyclobutoxy)-2-pyridyl]-6-(3-thienyl) piperidine-2,4-dione] | 0.322 |
| O=C1CC(c2ccsc2)(c2cccc(OCCCC(F)(F)F)n2)NC(=O)C1Sc1ccccc1Cl (single isomer, unassigned) [Example 142, 3-(2-chlorophenyl)sulfanyl-6-(3-thienyl)-6-[6-(4,4,4-trifluorobutoxy)-2-pyridyl]piperidine-2,4-dione] | 0.031 |
